Like-named read-outs stand apart in the source and are kept apart here.
Assays:
[1] = tested on: MCF7 cells; assay: MTT assay cytotoxicity MCF7
[2] = tested on: MDA-MB-231 cells; assay: MTT assay cytotoxicity MDA-MB-231
[3] = molecular target: T1, yeast proteasome yβ2 subunit (Saccharomyces cerevisiae, UniProt P25043+P25451); assay: Subunit selectivity, purified yeast proteasome yβ2; format: biochemical
T1 construct: measured using 8 μg/mL of purified yCP or iCP
Experimental: (§1) The compounds were diluted with lysis buffer; 10 μL of the compound-containing solution was added to the test wells at ten times the final concentration. […] The results are reported as the average of at least 3 technical replicates of IC50 values for proteasome inhibition.
(§2) Values and standard deviations were calculated from an assay performed in biological triplicate.

[4] = molecular target: T2, yeast proteasome yβ1 subunit (Saccharomyces cerevisiae, UniProt P25043+P38624); assay: Subunit selectivity, purified yeast proteasome yβ1; format: biochemical
T2 construct: measured using 8 μg/mL of purified yCP or iCP
Experimental: as §1, §2

[5] = molecular target: T3, chymotrypsin-like activity of the 26S proteasome (Homo sapiens, UniProt P28074); assay: Proteasome assay, chymotrypsin-like (ChT-L) activity, Suc-LLVY-AMC, Jurkat cell lysate; format: biochemical; conditions: for IC50: ± S.D., read-out: Proteasome Inhibition ChT-like IC50
T3 construct: endogenous in cells; host or cells: Jurkat (ATCC TIB-152, E6-1 clone) cell lysate
T3 sequence (P28074 60-263): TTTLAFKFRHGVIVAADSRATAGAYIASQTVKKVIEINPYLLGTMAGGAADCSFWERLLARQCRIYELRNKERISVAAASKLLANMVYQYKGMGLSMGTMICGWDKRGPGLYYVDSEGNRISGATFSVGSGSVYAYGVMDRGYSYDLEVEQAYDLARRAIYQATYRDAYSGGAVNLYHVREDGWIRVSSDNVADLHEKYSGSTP
Experimental: (§3) The lysate was stored at −80° C. until the sample was used for the proteasome assay.
as §1

[6] = molecular target: T4, trypsin-like activity of the 26S proteasome (Homo sapiens, UniProt Q99436); assay: Proteasome assay, trypsin-like (T-L) activity, SUC-RLR-AMC, Jurkat cell lysate; format: biochemical
T4 construct: endogenous in cells; host or cells: Jurkat (ATCC TIB-152, E6-1 clone) cell lysate
T4 sequence (Q99436 44-277): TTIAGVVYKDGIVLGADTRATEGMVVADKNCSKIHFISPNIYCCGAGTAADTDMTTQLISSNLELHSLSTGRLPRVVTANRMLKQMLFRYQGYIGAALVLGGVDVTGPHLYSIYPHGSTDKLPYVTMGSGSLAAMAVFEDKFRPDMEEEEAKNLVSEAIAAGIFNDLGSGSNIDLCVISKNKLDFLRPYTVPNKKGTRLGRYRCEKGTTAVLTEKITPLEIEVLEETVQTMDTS
Experimental: as §3, §1

[7] = tested on: RPMI 8226 cells; assay: MTT assay cytotoxicity RPMI 8226; conditions: read-out: Cytotoxicity RPMI 8226 IC50
Experimental: (§4) The cells were incubated at 37° C. in a humidified atmosphere with 5% CO2.
(§5) 100 μL of cells were added to each well of a 96 well microtiter plate at a concentration of 4×10^4 cells/mL and incubated overnight to allow proper adhesion. (RPMI 8226 cells were plated at 4×10^5 cells/mL). The cells were treated with the panel of test compounds at a series of concentrations, along with vehicle control DMSO and untreated cells as controls. After 48 h incubation, 20 μL of MTT reagent (3-(4,5-dimethylthiazol-2-yl)-2,5-diphenyltetrazolium bromide) in PBS (5 mg/mL) was added to each well of the plates. The plate was incubated for 2 h at 37° C. For adherent cell lines, the media was removed from each well of the plate and the resulting formazan crystals dissolved in 100 μL of DMSO. For RPMI 8226 cells, 200 ul of DMF/SDS mix (50% DMF. 10% w/v SDS pH<4) was used to solubilize the formazan crystals. Optical density (OD) at 490 nm was measured using a microplate reader. Cells treated with 1 μM phenyl arsine oxide (PAO) served as a positive cell-killing control. Technical replicates of these assays were performed in biological quadruplicate, and the three best values were used for analysis in order to eliminate outliers. Data presented are the average IC50 value calculated from at least 3 technical replicates with the corresponding standard deviation.

[8] = tested on: MCF7 cells
[9] = tested on: RPMI 8226 cells
Experimental: as §4, §5

[10] = tested on: MDA-MB-231 cells
[11] = Homo sapiens, MCF7, 48 h, read-out: Cytotoxicity MCF7 IC50
[12] = Homo sapiens, MDA-MB-231, 48 h, read-out: Cytotoxicity MDA-MB-231 IC50
[13] = Table 2, P1 analogues, ± S.D., read-out: Proteasome Inhibition T-L-like IC50
[14] = read-out: Cytotoxicity MCF7 IC50, Table 3, MTT, 48 h
[15] = read-out: Cytotoxicity MDA-MB-231 IC50, Table 3, MTT, 48 h
[16] = Table 3, P2/P3 analogues, ± S.D., read-out: Proteasome Inhibition T-L-like IC50

Compound	IC50 [1, 11] [nM]	IC50 [2, 12] [nM]	IC50 ([7]; Homo sapiens, RPMI-8226, 48 h) [nM]	IC50 ([5]; Table 3, P2/P3 analogues) [nM]	IC50 [6, 16] [nM]	IC50 [8] [nM]	IC50 [9] [nM]	IC50 [10] [nM]	IC50 ([5]; Table 4, P4 analogues) [nM]	other results
CC(C)C[C@H](NC(=O)[C@H](CCc1ccccc1)NC(=O)CN1CCOCC1)C(=O)N[C@@H](Cc1ccccc1)C(=O)N[C@@H](CC(C)C)C(=O)[C@@]1(C)CO1 [Carfilzomib, reference compound]	4 ± 1	4 ± 2	–	–	–	–	–	–	–	IC50 ([1]; Homo sapiens, MCF7, read-out: Cytotoxicity MCF7 IC50): 4.08 ± 0.056 nM; IC50 ([2]; Homo sapiens, MDA-MB-231, read-out: Cytotoxicity MDA-MB-231 IC50): 2.79 ± 0.464 nM; IC50 [3]: > 1000 nM; IC50 [4]: > 1000 nM
CC(C)[C@H](NC(=O)[C@@H]1OC(=O)[C@H]1C1CCC1)C(=O)N[C@H](C(=O)OCc1ccccc1)C(C)C [Compound 9b, Benzyl ((2R,3S)-3-cyclobutyl-4-oxooxetane-2-carbonyl)-L-valyl-L-valinate]	> 50000	~50000	30400 ± 4750	–	–	–	–	–	–	IC50 ([5]; Table 2, P1 analogues): 26.5 ± 7.7 nM; IC50 [6, 13]: 3730 ± 775 nM
CC(C)[C@H](NC(=O)[C@@H]1OC(=O)[C@H]1C1CCCC1)C(=O)N[C@H](C(=O)OCc1ccccc1)C(C)C [Compound 9c, Benzyl ((2R,3S)-3-cyclopentyl-4-oxooxetane-2-carbonyl)-L-valyl-L-valinate]	~25000	20600 ± 3940	1980 ± 1000	–	–	–	–	–	–	subunit selectivity, ChT-L over T-L (in words) [5]: greatest selectivity; IC50 ([5]; Table 2, P1 analogues): 13.9 ± 0.6 nM; IC50 [6, 13]: 10200 ± 3390 nM
CC(C)C[C@@H]1C(=O)O[C@H]1C(=O)N[C@H](C(=O)N[C@H](C(=O)OCc1ccccc1)C(C)C)C(C)C [Compound 9d, Benzyl ((2R,3S)-3-isobutyl-4-oxooxetane-2-carbonyl)-L-valyl-L-valinate]	~40000	25300 ± 2940	19900 ± 8060	–	–	–	–	–	–	IC50 ([5]; Table 2, P1 analogues): 16 ± 4.7 nM; IC50 [6, 13]: 6670 ± 3440 nM
CC[C@H](C)[C@@H]1C(=O)O[C@H]1C(=O)N[C@@H](Cc1ccccc1)C(=O)N[C@H](C(=O)OCc1ccccc1)C(C)C [Compound 10b, Benzyl((2R,3S)-3-((S)-sec-butyl)-4-oxooxetane-2-carbonyl)-L-phenylalanyl-L-valinate]	–	–	–	7.7 ± 1.7	3820 ± 812	–	–	–	–	IC50 [1, 14]: ~5000 nM; IC50 [2, 15]: 3440 ± 722 nM; subunit selectivity, ChT-L over T-L (in words) [5]: enhanced subunit selectivity; IC50 ([7]; Table 3, MTT, 48 h): 2330 ± 610 nM
CC[C@H](C)[C@@H]1C(=O)O[C@H]1C(=O)N[C@H](C(=O)N[C@@H](Cc1ccccc1)C(=O)OCc1ccccc1)C(C)C [Compound 10c, Benzyl((2R,3S)-3-((S)-sec-butyl)-4-oxooxetane-2-carbonyl)-L-valyl-phenylalaninate]	–	–	–	5.4 ± 2.9	1660 ± 204	–	–	–	–	IC50 [1, 14]: 2300 ± 142 nM; IC50 [2, 15]: 2570 ± 705 nM; IC50 ([7]; Table 3, MTT, 48 h): 1040 ± 45 nM
CC[C@H](C)[C@@H]1C(=O)O[C@H]1C(=O)N[C@@H](Cc1ccccc1)C(=O)N[C@@H](Cc1ccccc1)C(=O)OCc1ccccc1 [Compound 10d, Benzyl((2R,3S)-3-((S)-sec-butyl)-4-oxooxetane-2-carbonyl)-L-phenylalanyl-L-phenylalaninate]	–	–	–	12.6 ± 5.7	3050 ± 1260	–	–	–	–	IC50 [1, 14]: 3620 ± 2500 nM; IC50 [2, 15]: 4660 ± 1540 nM; IC50 ([7]; Table 3, MTT, 48 h): 1280 ± 527 nM
CC[C@H](C)[C@@H]1C(=O)O[C@H]1C(=O)N[C@H](C(=O)N[C@H](C(=O)OCc1ccccc1)C(C)C)C(C)(C)C [Compound 10e, Benzyl((S)-2-((2R,3S)-3-((S)-sec-butyl)-4-oxooxetane-2-carboxamido)-3,3-dimethylbutanoyl)-L-valinate]	–	–	–	22.9 ± 2.5	5180 ± 1490	2140 ± 122	1050 ± 750	1030 ± 644	–	subunit selectivity, ChT-L over T-L (in words) [5]: enhanced subunit selectivity
CC[C@H](C)[C@@H]1C(=O)O[C@H]1C(=O)N[C@H](C(=O)N[C@H](C(=O)OCc1ccccc1)C(C)(C)C)C(C)C [Compound 10f, Benzyl(S)-2-((S)-2-((2R,3S)-3-((S)-sec-butyl)-4-oxooxetane-2-carboxamido)-3-methylbutanamido)-3,3-dimethylbutanoate]	1120 ± 332	1110 ± 582	1390 ± 131	15.9 ± 1	–	–	–	–	–	IC50 [6]: 3710 ± 719 nM
CC[C@H](C)[C@@H]1C(=O)O[C@H]1C(=O)N[C@H](C(=O)N[C@H](C(=O)OCc1ccccc1)C(C)(C)C)C(C)(C)C [Compound 10g, Benzyl(S)-2-((S)-2-((2R,3S)-3-((S)-sec-butyl)-4-oxooxetane-2-carboxamido)-3,3-dimethylbutanamido)-3,3-dimethylbutanoate]	1690 ± 102	953 ± 484	866 ± 532	21.4 ± 8.8	4530 ± 2180	–	–	–	–	–
CC[C@H](C)[C@@H]1C(=O)O[C@H]1C(=O)N[C@@H](CC(C)C)C(=O)N[C@H](C(=O)OCc1ccccc1)C(C)C [Compound 10h, Benzyl((2R,3S)-3-((S)-sec-butyl)-4-oxooxetane-2-carbonyl)-L-leucyl-L-valinate]	–	–	–	4.7 ± 1.8	2560 ± 390	2350 ± 458	1780 ± 1020	2080 ± 651	–	–
CC[C@H](C)[C@@H]1C(=O)O[C@H]1C(=O)N[C@@H](COCc1ccccc1)C(=O)N[C@H](C(=O)OCc1ccccc1)C(C)C [Compound 10j, BenzylO-benzyl-N-((2R,3S)-3-((S)-sec-butyl)-4-oxooxetane-2-carbonyl)-L-seryl-L-valinate]	–	–	–	6.9 ± 0.2	792 ± 240	–	–	–	–	IC50 [1, 14]: 2760 ± 791 nM; IC50 [2, 15]: 2210 ± 764 nM; IC50 ([7]; Table 3, MTT, 48 h): 1430 ± 526 nM
CC[C@H](C)[C@@H]1C(=O)O[C@H]1C(=O)N[C@H](C(=O)N[C@H](C(=O)OCc1ccc(Cl)cc1)C(C)C)C(C)C [Compound 11b, 4-chlorobenzyl((2R,3S)-3-((S)-sec-butyl)-4-oxooxetane-2-carbonyl)-L-valyl-L-valinate]	–	–	–	–	–	954 ± 351	88 ± 12	307 ± 166	10.2 ± 7	–
CC[C@H](C)[C@@H]1C(=O)O[C@H]1C(=O)N[C@H](C(=O)N[C@H](C(=O)OCC1CCCCC1)C(C)C)C(C)C [Compound 11c, Cyclohexylmethyl((2R,3S)-3-((S)-sec-butyl)-4-oxooxetane-2-carbonyl)-L-valyl-L-valinate]	–	–	–	–	–	4570 ± 1650	461 ± 194	1920 ± 917	13 ± 5.2	–
CC[C@H](C)[C@@H]1C(=O)O[C@H]1C(=O)N[C@H](C(=O)N[C@H](C(=O)OCC(C)C)C(C)C)C(C)C [Compound 11d, Isobutyl((2R,3S)-3-((S)-sec-butyl)-4-oxooxetane-2-carbonyl)-L-valyl-L-valinate]	–	–	–	–	–	634 ± 72	99 ± 7	355 ± 123	9.4 ± 3.7	–
CC[C@H](C)[C@@H]1C(=O)O[C@H]1C(=O)N[C@H](C(=O)N[C@H](C(=O)OCc1ccc(OC)cc1)C(C)C)C(C)C [Compound 11f, 4-methoxybenzyl((2R,3S)-3-((S)-sec-butyl)-4-oxooxetane-2-carbonyl)-L-valyl-L-valinate]	–	–	–	–	–	–	–	–	9 ± 4.2	IC50 ([1]; read-out: Cytotoxicity MCF7 IC50, Table 4, MTT, 48 h): 574 ± 96 nM; IC50 ([2]; read-out: Cytotoxicity MDA-MB-231 IC50, Table 4, MTT, 48 h): 265 ± 114 nM; IC50 ([7]; Table 4, MTT, 48 h): 117 ± 47 nM
C=CCCOC(=O)[C@@H](NC(=O)[C@@H](NC(=O)[C@@H]1OC(=O)[C@H]1[C@@H](C)CC)C(C)C)C(C)C [Compound 11g, But-3-en-1-yl((2R,3S)-3-((S)-sec-butyl)-4-oxooxetane-2-carbonyl)-L-valyl-L-valinate]	–	–	–	–	–	752 ± 384	264 ± 48	361 ± 43	8.7 ± 2	–
CC[C@H](C)[C@@H]1C(=O)O[C@H]1C(=O)N[C@H](C(=O)N[C@H](C(=O)OC)C(C)C)C(C)C [Compound 11h, Methyl ((2R,3S)-3-((S)-sec-butyl)-4-oxooxetane-2-carbonyl)-L-valyl-L-valinate]	506 ± 207	316 ± 44	293 ± 71	–	–	–	–	–	24.3 ± 8.2	–

Reference: patent publication US11396497B2, “Proteasome inhibitors” (New Mexico Tech University Research Park Corporation, priority 2018, dated 2022)
